{
  "source": "ChEMBL document CHEMBL5512688",
  "about": "(J Med Chem, 2024)",
  "key": {"A-427 [1]": {"tested_on": "A-427", "experiment": "Induction of apoptosis in human A-427 cells assessed as necrotic cells at 800 nM measured for 48 hrs by Annexin V/PI double staining based flow cytometry analysis (reference value: 0.098%)", "type": "functional"}, "A-427 [2]": {"tested_on": "A-427", "experiment": "Induction of cell cycle arrest in human A-427 cells assessed as accumulation of cells at G2/M phase at 200 nM measured for 48 hrs by flow cytometry analysis (reference value: 10.9 %)", "type": "functional"}, "[3]": {"experiment": "Bioavailability in ICR mouse at 60 mg/kg, IG measured upto 24 hrs by LC-MS/MS analysis", "type": "ADME, organism-based", "settings": "in vivo, po"}, "A-427 [4]": {"tested_on": "A-427", "experiment": "Induction of apoptosis in human A-427 cells assessed as necrotic cells at 400 nM measured for 48 hrs by Annexin V/PI double staining based flow cytometry analysis (reference value: 0.098%)", "type": "functional"}, "[5]": {"experiment": "Half life in ICR mouse at 60 mg/kg, IG measured upto 24 hrs by LC-MS/MS analysis", "type": "ADME, organism-based", "settings": "in vivo, po"}, "A-427 [6]": {"tested_on": "A-427", "experiment": "Induction of apoptosis in human A-427 cells assessed as viable cells at 200 nM measured for 48 hrs by Annexin V/PI double staining based flow cytometry analysis (reference value: 97.7%)", "type": "functional", "settings": "read-out: Activity"}, "LoVo [7]": {"tested_on": "LoVo", "experiment": "Antiproliferative activity against human LoVo cells assessed as inhibition of cell growth incubated for 72 hrs by CCK-8 method", "type": "functional, cell-based"}, "[8]": {"experiment": "AUC (0 to 24 hrs) in ICR mouse at 60 mg/kg, IG measured upto 24 hrs by LC-MS/MS analysis", "type": "ADME, organism-based", "settings": "in vivo, po"}, "A-427 [9]": {"tested_on": "A-427", "experiment": "Induction of cell cycle arrest in human A-427 cells assessed as accumulation of cells at G0/G1 phase at 200 nM measured for 48 hrs by flow cytometry analysis (reference value: 49.5%)", "type": "functional"}, "A-427 [10]": {"tested_on": "A-427", "experiment": "Antiproliferative activity against human A-427 cells assessed as inhibition of cell growth incubated for 72 hrs by CCK-8 assay", "type": "functional, cell-based", "settings": "A-427, 72 h"}, "[11]": {"experiment": "Volume of distribution in ICR mouse at 1 mg/kg, iv measured upto 24 hrs by LC-MS/MS analysis", "type": "ADME, organism-based", "settings": "in vivo"}, "A-427 [12]": {"tested_on": "A-427", "experiment": "Induction of cell cycle arrest in human A-427 cells assessed as accumulation of cells at S phase at 400 nM measured for 48 hrs by flow cytometry analysis (reference value: 4 %)", "type": "functional"}, "A-427 [13]": {"tested_on": "A-427", "experiment": "Induction of apoptosis in human A-427 cells assessed as early apoptotic cells at 200 nM measured for 48 hrs by Annexin V/PI double staining based flow cytometry analysis (reference value: 1.96%)", "type": "functional"}, "LoVo [14]": {"tested_on": "LoVo", "experiment": "Antitumor activity against human LoVo cells xenografted in female BALB/c nude mouse assessed as tumor growth inhibition at 60 mg/kg, IG administered once daily for 27 days", "type": "functional", "settings": "po, 648 h, time 27 day, read-out: TGI"}, "[15]": {"experiment": "Metabolic stability in human liver microsome assessed as parent compound remaining measured at 60 mins by LCMS/MS analysis", "type": "ADME", "settings": "liver microsomes, read-out: Stability"}, "[16]": {"experiment": "AUC (0 to 24 hrs) in ICR mouse at 1 mg/kg, iv measured upto 24 hrs by LC-MS/MS analysis", "type": "ADME, organism-based", "settings": "in vivo"}, "[17]": {"experiment": "Clearance in ICR mouse at 1 mg/kg, iv measured upto 24 hrs by LC-MS/MS analysis", "type": "ADME, organism-based", "settings": "in vivo"}, "A-427 [18]": {"tested_on": "A-427", "experiment": "Induction of apoptosis in human A-427 cells assessed as late apoptotic cells at 400 nM measured for 48 hrs by Annexin V/PI double staining based flow cytometry analysis (reference value: 0.21%)", "type": "functional"}, "A-427 [19]": {"tested_on": "A-427", "experiment": "Induction of cell cycle arrest in human A-427 cells assessed as accumulation of cells at G0/G1 phase at 400 nM measured for 48 hrs by flow cytometry analysis (reference value: 49.5%)", "type": "functional"}, "A-427 [20]": {"tested_on": "A-427", "experiment": "Induction of cell cycle arrest in human A-427 cells assessed as accumulation of cells at G2/M phase at 50 nM measured for 48 hrs by flow cytometry analysis (reference value: 10.9 %)", "type": "functional"}, "[21]": {"experiment": "Acute toxicity in female C57 mouse assessed as reduction in body weight at 2000 mg/kg, IG measured for 14 days", "type": "organism-based", "settings": "in vivo, po, 336 h, time 14 day"}, "A-427 [22]": {"tested_on": "A-427", "experiment": "Induction of apoptosis in human A-427 cells assessed as late apoptotic cells at 200 nM measured for 48 hrs by Annexin V/PI double staining based flow cytometry analysis (reference value: 0.21%)", "type": "functional"}, "A-427 [23]": {"tested_on": "A-427", "experiment": "Induction of apoptosis in human A-427 cells assessed as early apoptotic cells at 400 nM measured for 48 hrs by Annexin V/PI double staining based flow cytometry analysis (reference value: 1.96%)", "type": "functional"}, "Wee1-like protein kinase [24]": {"target": "T1, Wee1-like protein kinase (Homo sapiens, UniProt P30291)", "experiment": "Inhibition of Wee1 in human U2OS cells assessed as reduction in CDK1 phosphorylation measured for 1 hr by Western blot analysis", "type": "cell-based"}, "A-427 [25]": {"tested_on": "A-427", "experiment": "Induction of cell cycle arrest in human A-427 cells assessed as accumulation of cells at S phase at 200 nM measured for 48 hrs by flow cytometry analysis (reference value: 4 %)", "type": "functional"}, "A-427 [26]": {"tested_on": "A-427", "experiment": "Induction of cell cycle arrest in human A-427 cells assessed as accumulation of cells at G2/M phase at 100 nM measured for 48 hrs by flow cytometry analysis (reference value: 10.9 %)", "type": "functional"}, "A-427 [27]": {"tested_on": "A-427", "experiment": "Induction of cell cycle arrest in human A-427 cells assessed as accumulation of cells at G2/M phase at 400 nM measured for 48 hrs by flow cytometry analysis (reference value: 10.9 %)", "type": "functional"}, "A-427 [28]": {"tested_on": "A-427", "experiment": "Induction of cell cycle arrest in human A-427 cells assessed as accumulation of cells at S phase at 50 nM measured for 48 hrs by flow cytometry analysis (reference value: 4 %)", "type": "functional"}, "Wee1-like protein kinase [29]": {"target": "T1, Wee1-like protein kinase", "experiment": "Inhibition of Wee1 (unknown origin) at 1 uM relative to control"}, "A-427 [30]": {"tested_on": "A-427", "experiment": "Induction of cell cycle arrest in human A-427 cells assessed as accumulation of cells at G0/G1 phase at 50 nM measured for 48 hrs by flow cytometry analysis (reference value: 49.5%)", "type": "functional"}, "A-427 [31]": {"tested_on": "A-427", "experiment": "Induction of apoptosis in human A-427 cells assessed as late apoptotic cells at 800 nM measured for 48 hrs by Annexin V/PI double staining based flow cytometry analysis (reference value: 0.21%)", "type": "functional"}, "A-427 [32]": {"tested_on": "A-427", "experiment": "Induction of apoptosis in human A-427 cells assessed as viable cells at 800 nM measured for 48 hrs by Annexin V/PI double staining based flow cytometry analysis (reference value: 97.7%)", "type": "functional", "settings": "read-out: Activity"}, "A-427 [33]": {"tested_on": "A-427", "experiment": "Induction of cell cycle arrest in human A-427 cells assessed as accumulation of cells at G0/G1 phase at 100 nM measured for 48 hrs by flow cytometry analysis (reference value: 49.5%)", "type": "functional"}, "A-427 [34]": {"tested_on": "A-427", "experiment": "Induction of apoptosis in human A-427 cells assessed as early apoptotic cells at 800 nM measured for 48 hrs by Annexin V/PI double staining based flow cytometry analysis (reference value: 1.96%)", "type": "functional"}},
  "data": [
    {"molecule": "C=CCn1c(=O)c2cnc(Nc3ccc(N4CCN(C)CC4)cc3)nc2n1-c1cccc(-c2cnccn2)n1", "values": [
      {"measurement": "Activity", "setting": "A-427 [1]", "result": 3.64, "unit": "%"},
      {"measurement": "Activity", "setting": "A-427 [2]", "result": 6.58, "unit": "%"},
      {"measurement": "bioavailability", "setting": "[3]", "result": 61.5, "unit": "%"},
      {"measurement": "Activity", "setting": "A-427 [4]", "result": 2.33, "unit": "%"},
      {"measurement": "half-life", "setting": "[5]", "result": 5.94, "unit": "h"},
      {"measurement": "viability at 0.2 µM", "setting": "A-427 [6]", "result": 60.6, "unit": "%"},
      {"measurement": "IC50", "setting": "LoVo [7]", "result": 82, "unit": "nM"},
      {"measurement": "AUC(0-t) at 24 h", "setting": "[8]", "result": 4340, "unit": "ng·h/mL"},
      {"measurement": "Activity", "setting": "A-427 [9]", "result": 31.6, "unit": "%"},
      {"measurement": "IC50", "setting": "A-427 [10]", "result": 84, "unit": "nM"},
      {"measurement": "Vd", "setting": "[11]", "result": 11.3, "unit": "L/kg"},
      {"measurement": "Activity", "setting": "A-427 [12]", "result": 59.1, "unit": "%"},
      {"measurement": "Activity", "setting": "A-427 [13]", "result": 9.02, "unit": "%"},
      {"measurement": "inhibition in vivo at 60 mg/kg", "setting": "LoVo [14]", "result": 88, "unit": "%"},
      {"measurement": "remaining at 1 h", "setting": "[15]", "result": 58.5, "unit": "%"},
      {"measurement": "AUC(0-t) at 24 h", "setting": "[16]", "result": 118, "unit": "ng·h/mL"},
      {"measurement": "clearance", "setting": "[17]", "result": 137, "unit": "mL/min/kg"},
      {"measurement": "Activity", "setting": "A-427 [18]", "result": 29.2, "unit": "%"},
      {"measurement": "Activity", "setting": "A-427 [19]", "result": 31.3, "unit": "%"},
      {"measurement": "Activity", "setting": "A-427 [20]", "result": 6.57, "unit": "%"},
      {"measurement": "Activity", "setting": "[21]", "result": "Non-Toxic"},
      {"measurement": "Activity", "setting": "A-427 [22]", "result": 25.6, "unit": "%"},
      {"measurement": "Activity", "setting": "A-427 [23]", "result": 10.1, "unit": "%"},
      {"measurement": "IC50", "setting": "Wee1-like protein kinase [24]", "result": 430, "unit": "nM"},
      {"measurement": "Activity", "setting": "A-427 [25]", "result": 59.1, "unit": "%"},
      {"measurement": "Activity", "setting": "A-427 [26]", "result": 7.09, "unit": "%"},
      {"measurement": "Activity", "setting": "A-427 [27]", "result": 9.32, "unit": "%"},
      {"measurement": "Activity", "setting": "A-427 [28]", "result": 46.7, "unit": "%"},
      {"measurement": "inhibition", "setting": "Wee1-like protein kinase [29]", "result": 111, "unit": "%"},
      {"measurement": "Activity", "setting": "A-427 [30]", "result": 40.9, "unit": "%"},
      {"measurement": "Activity", "setting": "A-427 [31]", "result": 35.4, "unit": "%"},
      {"measurement": "viability at 0.8 µM", "setting": "A-427 [32]", "result": 50.9, "unit": "%"},
      {"measurement": "Activity", "setting": "A-427 [33]", "result": 41.4, "unit": "%"},
      {"measurement": "Activity", "setting": "A-427 [34]", "result": 10.1, "unit": "%"}
    ]}
  ]
}
